This is an account of results in patent US20040009170A1, “Alpha-melanocyte stimulating hormone peptides protection in organ transplantation” (priority 2002, published 2004).

Data set [1] deals with heart grafts (Brown Norway into Lewis rats). In words: Histopathological evaluation and ED1 immunohistochemistry of heart grafts. In kind it is in vivo, rat. As to the method:
Experiments were performed to determine whether NDP-α-MSH treatment prolongs allograft survival. For this purpose, NDP-α-MSH or saline was administered from the time of transplantation until spontaneous rejection. In such experiments (n=7), rats were sacrificed when there was loss of palpable contractile activity of the graft. Studies were performed focusing on the influence of NDP-α-MSH on graft histopathology and transcripts involved in inflammation and rejection. For these studies, rats (n=6) were sacrificed 1 or 4 days after transplantation. NDP-α-MSH or saline was administered from day 0 until the sacrifice.
Heart grafts, removed from rats on day 1, 4, or at the time of rejection, were sectioned coronally. Two sections were snap-frozen in liquid nitrogen and stored at −80° C. for RNA extraction and RT-PCR assays. One section was fixed in 10% buffered formalin and paraffin-embedded for light microscopy examination.
Histopathological evaluation was then performed. Three μm coronal sections of heart grafts were stained with hematoxylin and eosin. Histopathological lesions were scored by two blinded observers using a 5-point scale according to combined assessments of edema (absent, perivascular/mild interstitial, subendocardial, diffuse interstitial, massive); inflammatory cell infiltration (absent, perivascular, subendocardial, diffuse interstitial, massive), and myocytolysis (absent, focal, massive): 0=minimum damage, 1+=mild damage, 2+=moderate damage, 3+=severe damage, and 4+=maximum damage.
Analysis of graft infiltrating monocytes/macrophages was performed through immunohistochemical detection of ED1-positive cells. Sections were stained using the peroxidase-antiperoxidase (PAP) technique, after incubation with mouse anti-rat ED 1 or control antibody (Santa Cruz Biotech, Santa Cruz, Calif., USA). Slides were counterstained with hematoxylin and eosin.
Statistical analysis was performed using SigmaStat statistical software (Jandel Scientific GmbH, Germany). Values are expressed as mean±SEM. Unpaired Student's t test was used to compare differences between values in histological scores. Difference in median graft survival time was evaluated using the Mann-Whitney Rank Sum Test. A probability value<0.05 was considered statistically significant.

A further data set concerns proteolytic enzymes. The note with it: cited from earlier work.
For data set [2], the system named is donor cardiac grafts (Brown Norway) transplanted into recipient (Lewis) rats. The data set is described as follows: Heterotopic heart transplantation in rats: allograft survival. The class given is in vivo, rat. From the text: Adult inbred Brown Norway (donor) and Lewis (recipient) male rats, weighing 200-300 g were used in this study (Charles River, Calco, Italy). Animals were maintained at the animal care facilities of the Department of Hepatology, Ospedale Maggiore di Milano, Italy, under standard temperature, humidity, and time-regulated light conditions. Water and food were provided ad libitum. All animals received care in compliance with the Principles of Laboratory Animal Care, formulated by the National Society of Medical Research, and the Guide for the Care and Use of Laboratory Animals, prepared by the National Academy of Sciences and published by the National Institutes of Health (NIH Publication No. 8623, revised 1985).
Before transplantation, animals were anesthetized with an intraperitoneal injection of 125-mg/kg ketamine. During anesthesia, heart rate, ventilation rate, and temperature were closely monitored. Donor cardiac grafts (Brown Norway) were transplanted into the abdominal cavity of the recipient (Lewis) rats using the technique described by Ono and Lindsey. […] Graft function was monitored by palpation through the abdominal wall twice daily. […]
Statistical analysis was performed using SigmaStat statistical software (Jandel Scientific GmbH, Germany). Values are expressed as mean±SEM. […] Difference in median graft survival time was evaluated using the Mann-Whitney Rank Sum Test. […]

For data set [3] the following is noted: depending upon the assay employed; cited from earlier work.
The nature of data set [4]: Plasma nitrite (NO2-) determination after heart transplantation (Griess). The class given is in vivo, rat. The note with it: all intervals (day 1, day 4, rejection). As to the method: Plasma was separated by centrifugation, aliquoted, and stored at −80° C.
Nitric oxide determinations were performed. Specifically, plasma nitrite concentration was determined at times of sacrifice as a measure of nitric oxide release. Nitrates (NO3^−) were converted into nitrites (NO2^−) by treatment of serum with nitrate reductase (Boehringer Mannheim Italia SpA, Milan, Italy). After enzymatic reduction, samples were mixed with equal amounts of Griess reagent (sulfanilamide 1%, napthlethylenediamide 0.1% in phosphoric acid 0.25%). Samples were incubated at room temperature for 10 min and absorbency was measured at 540 nm using a microplate automatic reader.
(The Griess reaction detects nitrite, a stable product of nitric oxide.)

Setting [5] is: 4 days after transplantation, vs untreated.
[6] abbreviates: day 1 after transplantation, vs untreated.

For Nle^4DPhe^7-α-MSH [NDP-α-MSH], in data set [1] (setting [5]), the “ED1-positive cells infiltrating the graft” value was “fewer and dispersed”; the Inflammation and edema result was “milder and mostly restricted to the subendocardial region”. Further, the “Histopathological score of heart grafts” value in data set [1] (4 days after transplantation, untreated 10.8±0.80, p<0.01) is listed as 7.0±0.64. The “Histology of rejected hearts, treated vs untreated” value in data set [1] (at time of rejection) is on record as “no significant differences”. Also, in data set [1] (setting [6]), the Inflammatory cell infiltration entry is “much less”; the Intragraft edema result was “milder and generally restricted to the perivascular spaces”. The “Histopathological score of heart grafts” value in data set [1] (day 1 after transplantation, mean±SEM, untreated 8.7±0.25, p<0.001) was determined as 3.0±0.90. Also, the “Inactivation by proteolytic enzymes” value in the data set on proteolytic enzymes is reported as “resistant”. This substance also came in with a Median graft survival in data set [2] (100 μg i.p. every 12 h from 1 h before transplantation until rejection, no immunosuppression, untreated 6 days, p<0.001) of 10 days. In addition, the “Graft survival time, range” value in data set [2] (100 μg i.p. every 12 h until rejection, untreated range 6-8) lay in the range of 9 to 11 days. Besides, the “Activity relative to the natural molecule” value in data set [3] is given as 10- to 1000 times. For the same substance, the “Increases in plasma NO2- concentration vs untreated” value in data set [4] is “significantly lower”.
